Assay results from ChEMBL document CHEMBL1201862, “PubChem BioAssay data set” (2004).
“And” between values parts separate entries of the source, which are not always exact repeats. Equal values may be shown once. Each block holds one compound with its values, some of them ahead of it. The source made the active and inactive calls.

How the values were obtained:
[1] = biological target: 1-acylglycerol-3-phosphate O-acyltransferase ABHD5/Perilipin-5 (Homo sapiens, UniProt Q00G26+Q8WTS1); test: Luminescence-based biochemical high throughput dose response assay for inhibitors of the interaction of the lipase co-activator protein, abhydrolase domain containing 5 (ABHD5) with perilipin-5 (MLDP; PLIN5) (2K validation set). [Related pubchem assays (depositor defined):AID493035, AID493241]
Chain of 1-acylglycerol-3-phosphate O-acyltransferase ABHD5/Perilipin-5 (Q00G26 whole entry, the tested form may be a part): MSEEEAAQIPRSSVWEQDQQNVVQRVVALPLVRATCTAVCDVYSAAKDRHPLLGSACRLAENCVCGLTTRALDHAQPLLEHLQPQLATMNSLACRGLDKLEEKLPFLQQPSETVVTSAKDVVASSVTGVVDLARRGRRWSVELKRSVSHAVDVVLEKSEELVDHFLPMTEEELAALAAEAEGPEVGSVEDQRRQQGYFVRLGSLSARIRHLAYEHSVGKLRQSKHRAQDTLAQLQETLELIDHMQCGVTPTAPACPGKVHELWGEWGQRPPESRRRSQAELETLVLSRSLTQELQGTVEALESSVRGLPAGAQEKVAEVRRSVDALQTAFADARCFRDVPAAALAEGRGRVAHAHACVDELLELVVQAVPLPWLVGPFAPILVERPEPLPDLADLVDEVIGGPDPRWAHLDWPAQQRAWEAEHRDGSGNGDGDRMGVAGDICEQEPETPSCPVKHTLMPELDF
Chain of 1-acylglycerol-3-phosphate O-acyltransferase ABHD5/Perilipin-5 (Q8WTS1 whole entry, the tested form may be a part): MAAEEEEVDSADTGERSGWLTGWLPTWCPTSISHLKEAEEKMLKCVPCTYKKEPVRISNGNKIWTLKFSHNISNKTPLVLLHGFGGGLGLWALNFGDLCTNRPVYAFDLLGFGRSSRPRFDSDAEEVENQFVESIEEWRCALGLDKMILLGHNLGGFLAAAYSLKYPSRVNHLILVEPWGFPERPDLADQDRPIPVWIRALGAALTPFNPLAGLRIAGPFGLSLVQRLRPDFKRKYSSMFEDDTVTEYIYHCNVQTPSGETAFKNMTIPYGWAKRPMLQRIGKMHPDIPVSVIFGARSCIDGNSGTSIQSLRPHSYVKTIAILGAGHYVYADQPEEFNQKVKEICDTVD

Perilipin-1/ABHD5 = Perilipin-1/ABHD5 (Homo sapiens, UniProt O60240+Q8WTS1); test: Luminescence-based biochemical high throughput dose response assay for inhibitors of the interaction of the lipase co-activator protein, abhydrolase domain containing 5 (ABHD5) with perilipin-1 (PLIN1) (2K validation set). [Related pubchem assays (depositor defined):AID493027, AID493057]
Chain of Perilipin-1/ABHD5 (Q8WTS1 whole entry, the tested form may be a part): as above
Chain of Perilipin-1/ABHD5 (O60240 whole entry, the tested form may be a part): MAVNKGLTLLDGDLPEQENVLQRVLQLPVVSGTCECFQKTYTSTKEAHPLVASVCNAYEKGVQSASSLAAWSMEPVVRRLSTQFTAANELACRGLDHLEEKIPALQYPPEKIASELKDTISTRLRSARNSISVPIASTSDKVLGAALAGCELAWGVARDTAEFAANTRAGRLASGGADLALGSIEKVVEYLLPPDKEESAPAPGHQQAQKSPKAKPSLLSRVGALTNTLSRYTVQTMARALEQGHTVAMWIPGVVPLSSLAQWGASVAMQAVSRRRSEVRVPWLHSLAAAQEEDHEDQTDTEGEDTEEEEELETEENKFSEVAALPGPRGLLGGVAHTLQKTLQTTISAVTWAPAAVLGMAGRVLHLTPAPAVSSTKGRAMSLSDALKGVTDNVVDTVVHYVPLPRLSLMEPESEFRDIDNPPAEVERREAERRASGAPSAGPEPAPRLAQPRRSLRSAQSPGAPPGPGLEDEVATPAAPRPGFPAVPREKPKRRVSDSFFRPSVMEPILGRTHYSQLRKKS

[2] = biological target: Eukaryotic translation initiation factor 4E (Mus musculus, UniProt P63073); test: eIF4E–eIF4G protein interaction inhibitors, dose response, biochemical, TR-FRET (AID 855); format: functional;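 further: potency for disrupting eIF4E binding to eIF4GI seen as loss of FRET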
[3] = biological target: T1, Short transient receptor potential channel 4 (Mus musculus, UniProt Q9QUQ5); test: mouse TRPC4 channel inhibitors, dose response, cell-based, HEK293 TRPC4/mu-opioid, Fluo-4 calcium (AID 434942); format: functional;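 further: potency of inhibitors blocking the TRPC4 calcium response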
T1 sequence (Q9QUQ5 whole entry): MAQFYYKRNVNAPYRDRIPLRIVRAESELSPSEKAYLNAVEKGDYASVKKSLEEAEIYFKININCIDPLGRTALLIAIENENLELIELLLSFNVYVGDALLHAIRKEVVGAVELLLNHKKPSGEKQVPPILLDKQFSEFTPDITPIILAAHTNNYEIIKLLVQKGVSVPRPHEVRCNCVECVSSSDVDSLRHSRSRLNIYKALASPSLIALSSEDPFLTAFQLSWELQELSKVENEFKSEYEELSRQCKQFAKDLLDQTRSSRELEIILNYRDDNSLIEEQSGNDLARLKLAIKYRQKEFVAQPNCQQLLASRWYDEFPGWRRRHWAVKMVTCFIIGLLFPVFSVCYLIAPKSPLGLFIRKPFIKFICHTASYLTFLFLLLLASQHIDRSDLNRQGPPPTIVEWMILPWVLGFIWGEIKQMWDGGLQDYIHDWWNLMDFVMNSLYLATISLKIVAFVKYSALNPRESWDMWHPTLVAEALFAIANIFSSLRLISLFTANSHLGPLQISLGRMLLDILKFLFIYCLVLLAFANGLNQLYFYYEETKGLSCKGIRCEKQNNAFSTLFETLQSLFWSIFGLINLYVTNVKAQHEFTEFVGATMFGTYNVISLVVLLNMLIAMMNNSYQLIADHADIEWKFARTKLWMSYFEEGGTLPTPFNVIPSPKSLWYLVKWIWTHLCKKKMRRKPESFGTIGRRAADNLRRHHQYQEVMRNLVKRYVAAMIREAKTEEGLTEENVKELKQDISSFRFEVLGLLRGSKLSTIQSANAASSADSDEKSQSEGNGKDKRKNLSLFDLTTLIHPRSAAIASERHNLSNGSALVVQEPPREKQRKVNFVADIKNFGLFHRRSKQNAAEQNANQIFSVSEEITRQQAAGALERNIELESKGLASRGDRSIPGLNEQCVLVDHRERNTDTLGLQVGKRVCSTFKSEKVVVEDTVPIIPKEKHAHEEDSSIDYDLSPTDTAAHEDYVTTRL

HEK293 [4] = test: cells; conditions: Homo sapiens
HEK293 [5] = test: cells; conditions: Homo sapiens; remark: listed apart in the source
[6] = biological target: Glyceraldehyde-3-phosphate dehydrogenase (Homo sapiens, UniProt P04406)
[7] = biological target: Alkaline phosphatase, placental type (Homo sapiens, UniProt P05187); test: PLAP enzyme inhibitors, confirmation, biochemical, luminescence (AID 1512); format: functional
Chain of Alkaline phosphatase, placental type (P05187 whole entry): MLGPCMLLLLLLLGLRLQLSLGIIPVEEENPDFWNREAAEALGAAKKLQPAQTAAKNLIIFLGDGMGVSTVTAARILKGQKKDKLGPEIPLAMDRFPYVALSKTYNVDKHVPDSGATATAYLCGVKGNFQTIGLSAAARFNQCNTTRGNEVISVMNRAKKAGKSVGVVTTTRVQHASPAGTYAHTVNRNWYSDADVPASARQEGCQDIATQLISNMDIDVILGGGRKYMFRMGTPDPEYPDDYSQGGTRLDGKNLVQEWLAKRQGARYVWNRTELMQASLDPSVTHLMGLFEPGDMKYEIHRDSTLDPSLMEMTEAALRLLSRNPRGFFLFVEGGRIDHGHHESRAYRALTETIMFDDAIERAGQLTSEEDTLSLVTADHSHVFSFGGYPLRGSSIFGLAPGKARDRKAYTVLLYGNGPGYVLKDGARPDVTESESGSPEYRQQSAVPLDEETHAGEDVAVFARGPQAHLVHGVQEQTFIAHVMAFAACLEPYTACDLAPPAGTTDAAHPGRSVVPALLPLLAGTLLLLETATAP

[8] = biological target: T2, Alkaline phosphatase, tissue-nonspecific isozyme (Homo sapiens, UniProt P05186); test: human TNAP enzyme inhibitors, SAR follow-up, biochemical, luminescent, dose response (AID 1056)
T2 sequence (P05186 whole entry): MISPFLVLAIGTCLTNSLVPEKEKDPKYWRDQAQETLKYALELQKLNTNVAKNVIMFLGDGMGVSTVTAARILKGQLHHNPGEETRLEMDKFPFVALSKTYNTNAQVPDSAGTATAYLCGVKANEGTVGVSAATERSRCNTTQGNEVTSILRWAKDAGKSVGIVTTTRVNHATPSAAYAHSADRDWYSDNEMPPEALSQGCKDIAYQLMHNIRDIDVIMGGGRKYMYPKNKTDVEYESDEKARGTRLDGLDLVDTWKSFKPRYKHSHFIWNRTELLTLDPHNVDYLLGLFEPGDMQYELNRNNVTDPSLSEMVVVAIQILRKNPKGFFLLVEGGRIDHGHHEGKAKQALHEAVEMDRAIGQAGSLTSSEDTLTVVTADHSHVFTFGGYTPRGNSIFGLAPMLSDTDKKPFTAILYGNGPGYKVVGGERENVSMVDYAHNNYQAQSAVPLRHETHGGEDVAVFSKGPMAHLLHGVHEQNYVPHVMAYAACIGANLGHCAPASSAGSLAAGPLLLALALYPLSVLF

[9] = biological target: T3, Sphingosine 1-phosphate receptor 4 (Homo sapiens, UniProt O95977); test: Late-stage fluorescence dose response cell-based assay to identify agonists of the Sphingosine 1-Phosphate Receptor 4 (S1P4): purchased compounds EC50. [Related pubchem assays (depositor defined):AID1509, AID1523, AID1563, AID1686, AID1701, AID1801]; format: functional
T3 sequence (O95977 whole entry): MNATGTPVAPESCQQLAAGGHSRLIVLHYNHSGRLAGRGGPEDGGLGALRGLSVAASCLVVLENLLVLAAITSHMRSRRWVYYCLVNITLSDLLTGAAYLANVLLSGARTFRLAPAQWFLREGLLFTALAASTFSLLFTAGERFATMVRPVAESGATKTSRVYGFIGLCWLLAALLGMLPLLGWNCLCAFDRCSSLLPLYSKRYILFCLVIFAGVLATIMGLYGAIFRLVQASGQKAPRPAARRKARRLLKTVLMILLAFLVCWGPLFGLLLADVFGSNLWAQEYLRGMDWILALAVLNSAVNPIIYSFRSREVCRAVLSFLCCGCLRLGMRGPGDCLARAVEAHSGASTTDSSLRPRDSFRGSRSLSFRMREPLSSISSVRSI

[10] = biological target: T4, Voltage-gated N-type calcium channel alpha-1B subunit/Amyloid beta A4 precursor protein-binding family A member 1 (Homo sapiens, UniProt Q00975+Q02410); format: protein assay
T4 sequence (Q00975 whole entry): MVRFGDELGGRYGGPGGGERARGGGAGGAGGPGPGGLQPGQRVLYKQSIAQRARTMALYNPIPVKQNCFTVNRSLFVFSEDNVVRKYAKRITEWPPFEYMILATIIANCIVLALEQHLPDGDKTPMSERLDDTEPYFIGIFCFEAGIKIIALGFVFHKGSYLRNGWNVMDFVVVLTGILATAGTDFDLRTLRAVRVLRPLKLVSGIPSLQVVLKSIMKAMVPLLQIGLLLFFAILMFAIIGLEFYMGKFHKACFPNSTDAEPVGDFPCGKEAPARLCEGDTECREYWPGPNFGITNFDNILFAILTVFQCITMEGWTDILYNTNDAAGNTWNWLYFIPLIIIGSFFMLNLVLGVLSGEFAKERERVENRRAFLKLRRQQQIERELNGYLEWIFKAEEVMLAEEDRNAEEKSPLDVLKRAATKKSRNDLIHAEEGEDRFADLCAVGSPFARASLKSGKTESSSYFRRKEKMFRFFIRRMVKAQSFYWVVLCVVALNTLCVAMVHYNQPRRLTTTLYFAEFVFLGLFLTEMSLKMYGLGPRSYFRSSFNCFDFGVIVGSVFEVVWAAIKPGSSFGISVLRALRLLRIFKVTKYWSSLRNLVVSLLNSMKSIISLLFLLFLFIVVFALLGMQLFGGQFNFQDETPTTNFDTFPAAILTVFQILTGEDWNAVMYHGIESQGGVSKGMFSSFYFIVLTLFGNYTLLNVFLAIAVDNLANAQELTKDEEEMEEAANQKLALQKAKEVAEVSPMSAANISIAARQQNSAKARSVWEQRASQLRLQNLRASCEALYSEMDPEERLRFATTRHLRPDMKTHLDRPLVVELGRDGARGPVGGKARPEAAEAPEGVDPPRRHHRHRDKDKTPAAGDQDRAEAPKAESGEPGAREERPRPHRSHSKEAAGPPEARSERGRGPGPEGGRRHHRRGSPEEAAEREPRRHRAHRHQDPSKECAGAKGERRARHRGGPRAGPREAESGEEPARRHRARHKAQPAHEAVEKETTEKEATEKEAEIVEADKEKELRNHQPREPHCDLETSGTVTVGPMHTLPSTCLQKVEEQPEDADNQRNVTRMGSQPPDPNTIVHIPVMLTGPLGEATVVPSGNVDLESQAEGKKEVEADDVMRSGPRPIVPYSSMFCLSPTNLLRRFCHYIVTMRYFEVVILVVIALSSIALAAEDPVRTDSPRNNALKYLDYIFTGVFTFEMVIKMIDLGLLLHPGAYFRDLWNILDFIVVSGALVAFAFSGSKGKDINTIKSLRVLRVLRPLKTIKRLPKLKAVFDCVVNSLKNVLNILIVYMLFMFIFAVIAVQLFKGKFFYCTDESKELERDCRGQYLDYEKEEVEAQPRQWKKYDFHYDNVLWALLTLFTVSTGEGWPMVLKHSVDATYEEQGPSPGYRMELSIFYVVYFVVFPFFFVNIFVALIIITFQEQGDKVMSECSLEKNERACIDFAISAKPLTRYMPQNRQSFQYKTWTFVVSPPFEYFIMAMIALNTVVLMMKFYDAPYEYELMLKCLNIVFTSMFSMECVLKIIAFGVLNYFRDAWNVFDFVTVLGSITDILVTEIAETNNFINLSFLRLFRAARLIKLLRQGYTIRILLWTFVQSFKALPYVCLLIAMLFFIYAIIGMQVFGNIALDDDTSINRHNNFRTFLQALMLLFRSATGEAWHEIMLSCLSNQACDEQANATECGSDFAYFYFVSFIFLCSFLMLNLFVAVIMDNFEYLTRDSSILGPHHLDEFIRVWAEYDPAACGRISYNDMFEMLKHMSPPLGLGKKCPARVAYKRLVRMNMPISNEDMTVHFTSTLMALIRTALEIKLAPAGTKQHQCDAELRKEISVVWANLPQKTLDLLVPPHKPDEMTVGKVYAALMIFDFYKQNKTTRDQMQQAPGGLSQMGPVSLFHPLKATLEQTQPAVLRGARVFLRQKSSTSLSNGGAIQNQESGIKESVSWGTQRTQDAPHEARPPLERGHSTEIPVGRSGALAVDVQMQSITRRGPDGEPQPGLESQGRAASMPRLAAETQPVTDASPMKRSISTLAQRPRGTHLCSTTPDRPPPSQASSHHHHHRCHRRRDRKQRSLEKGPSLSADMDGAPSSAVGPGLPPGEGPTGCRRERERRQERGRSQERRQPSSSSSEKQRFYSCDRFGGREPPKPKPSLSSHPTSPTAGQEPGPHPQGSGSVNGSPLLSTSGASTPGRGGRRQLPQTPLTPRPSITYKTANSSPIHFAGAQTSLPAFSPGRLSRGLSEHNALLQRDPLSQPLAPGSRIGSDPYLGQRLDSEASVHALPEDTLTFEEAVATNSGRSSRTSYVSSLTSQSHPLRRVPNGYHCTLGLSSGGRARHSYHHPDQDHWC
T4 sequence (Q02410 whole entry): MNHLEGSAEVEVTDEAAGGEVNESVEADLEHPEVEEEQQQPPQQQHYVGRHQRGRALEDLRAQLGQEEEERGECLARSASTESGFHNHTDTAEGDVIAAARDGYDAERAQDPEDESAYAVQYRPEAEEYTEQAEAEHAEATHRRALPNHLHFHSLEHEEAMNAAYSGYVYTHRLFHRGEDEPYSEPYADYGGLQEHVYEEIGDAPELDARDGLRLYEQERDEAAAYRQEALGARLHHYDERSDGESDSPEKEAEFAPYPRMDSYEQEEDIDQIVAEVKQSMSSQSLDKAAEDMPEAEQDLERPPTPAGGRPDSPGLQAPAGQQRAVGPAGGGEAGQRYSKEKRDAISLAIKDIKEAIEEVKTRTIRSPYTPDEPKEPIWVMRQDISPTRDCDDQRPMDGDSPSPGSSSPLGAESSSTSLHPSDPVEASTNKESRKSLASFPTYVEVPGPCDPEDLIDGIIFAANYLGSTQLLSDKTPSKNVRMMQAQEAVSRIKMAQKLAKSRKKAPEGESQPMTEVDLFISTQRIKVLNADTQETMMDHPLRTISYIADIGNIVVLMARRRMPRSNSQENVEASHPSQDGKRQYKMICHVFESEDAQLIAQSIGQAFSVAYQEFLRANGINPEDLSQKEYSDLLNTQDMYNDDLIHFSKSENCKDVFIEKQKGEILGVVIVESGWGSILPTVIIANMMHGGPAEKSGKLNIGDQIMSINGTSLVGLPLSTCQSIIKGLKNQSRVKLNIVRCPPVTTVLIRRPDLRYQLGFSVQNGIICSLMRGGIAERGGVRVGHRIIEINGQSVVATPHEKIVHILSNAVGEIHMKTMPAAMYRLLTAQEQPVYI

[11] = biological target: T4, Voltage-gated N-type calcium channel alpha-1B subunit/Amyloid beta A4 precursor protein-binding family A member 1; format: protein assay; remark: listed apart in the source
[12] = biological target: Induced myeloid leukemia cell differentiation protein Mcl-1 (Homo sapiens, UniProt Q07820); format: functional
Bcl-2-related protein A1 = biological target: T5, Bcl-2-related protein A1 (Mus musculus, UniProt Q07440); format: functional;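 further: confirmatory dose–response counterscreen on Bfl-1, used to check hits from a UBC13 polyubiquitin inhibitor campaign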
T5 sequence (Q07440 whole entry): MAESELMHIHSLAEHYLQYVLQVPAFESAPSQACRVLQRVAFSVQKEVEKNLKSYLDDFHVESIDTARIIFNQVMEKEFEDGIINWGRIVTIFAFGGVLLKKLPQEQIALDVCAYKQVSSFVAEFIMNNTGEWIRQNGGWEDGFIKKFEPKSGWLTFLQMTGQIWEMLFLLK

[13] = biological target: T6, Ubiquitin-conjugating enzyme E2 N (Homo sapiens, UniProt P61088); format: functional
T6 sequence (P61088 whole entry): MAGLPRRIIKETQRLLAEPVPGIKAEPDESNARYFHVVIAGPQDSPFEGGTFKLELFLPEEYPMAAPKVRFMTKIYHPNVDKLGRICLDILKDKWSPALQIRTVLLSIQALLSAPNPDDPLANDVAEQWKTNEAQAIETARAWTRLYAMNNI

[14] = biological target: T6, Ubiquitin-conjugating enzyme E2 N; format: functional; remark: listed apart in the source
[15] = biological target: T7, Type-1 angiotensin II receptor (Homo sapiens, UniProt P30556); test: AT1 receptor agonists, dose response, selectivity assay for APJ receptor agonist project, cell-based, uHTS hits (AID 488865); format: functional;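 further: beta-arrestin recruitment to AT1 measured by enzyme fragment complementation luminescence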
T7 sequence (P30556 whole entry): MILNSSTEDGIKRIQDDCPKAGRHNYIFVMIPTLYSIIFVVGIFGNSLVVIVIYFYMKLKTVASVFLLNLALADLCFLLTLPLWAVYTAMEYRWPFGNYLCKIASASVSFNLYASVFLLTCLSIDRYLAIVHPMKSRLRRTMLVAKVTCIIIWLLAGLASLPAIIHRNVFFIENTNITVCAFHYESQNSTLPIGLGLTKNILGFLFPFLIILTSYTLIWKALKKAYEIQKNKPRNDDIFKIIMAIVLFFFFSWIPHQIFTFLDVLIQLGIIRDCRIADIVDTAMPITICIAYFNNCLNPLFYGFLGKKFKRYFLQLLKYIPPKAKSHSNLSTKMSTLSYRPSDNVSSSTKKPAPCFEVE

[16] = biological target: Delta-type opioid receptor (Homo sapiens, UniProt P41143); test: Counterscreen for agonists of heterodimerization of the mu 1 (OPRM1) and delta 1 (OPRD1) opioid receptors: Luminescence-based cell-based high throughput dose response assay to identify agonists of OPRD1 homodimerization. [Related pubchem assays (depositor defined):AID504326, AID504355, AID504692, AID504904, AID504905]; format: functional
Mu-type opioid receptor = Mu-type opioid receptor (Homo sapiens, UniProt P35372); test: Counterscreen for agonists of heterodimerization of the mu 1 (OPRM1) and delta 1 (OPRD1) opioid receptors: Luminescence-based cell-based high throughput dose response assay to identify agonists of OPRM1 homodimerization.; format: functional;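 further: U2OS cells expressing OPRM1 and beta-arrestin as split beta-galactosidase partners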
[17] = biological target: 5-hydroxytryptamine receptor 5A (Homo sapiens, UniProt P47898); test: Counterscreen for agonists of OPRM1-OPRD1 heterodimerization: luminescence-based cell-based high throughput dose response assay to identify agonists of 5-hydroxytryptamine (serotonin) 5A receptor (HTR5A). [Related pubchem assays (depositor defined):AID504326, AID504355, AID504692, AID504904, AID504905]; format: functional
[18] = Fluorescence-based cell-based high throughput dose response assay for inhibitors of the interaction of nucleotide-binding oligomerization domain containing 2 (NOD2) and the receptor-interacting serine-threonine kinase 2 (RIPK2).; format: functional; conditions: Homo sapiens
[19] = biological target: T8, Tyrosine-protein phosphatase non-receptor type 7 (Homo sapiens, UniProt P35236); test: redox-dependent HePTP inhibition, mechanism study, biochemical, fluorescence (AID 2068); format: functional
T8 sequence (P35236 whole entry): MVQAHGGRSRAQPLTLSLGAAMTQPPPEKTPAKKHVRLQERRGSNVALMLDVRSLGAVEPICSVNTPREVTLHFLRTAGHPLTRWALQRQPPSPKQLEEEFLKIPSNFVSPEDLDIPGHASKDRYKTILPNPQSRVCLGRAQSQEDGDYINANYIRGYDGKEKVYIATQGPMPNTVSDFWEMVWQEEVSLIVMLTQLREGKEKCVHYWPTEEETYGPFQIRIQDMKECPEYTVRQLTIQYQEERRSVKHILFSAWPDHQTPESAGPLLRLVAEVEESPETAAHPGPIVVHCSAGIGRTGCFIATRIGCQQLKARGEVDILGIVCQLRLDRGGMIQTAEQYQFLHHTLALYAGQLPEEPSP

Structure (SMILES): CC1(C)c2ccccc2N2CC(=O)NC21/C=C/c1ccco1 (stereo not drawn)
IC50 [1]: 20.6 µM (inactive)
IC50 (Perilipin-1/ABHD5): 20.8 µM (inactive)
IC50 [2]: 50 µM (inactive)

Structure (SMILES): CCOc1cc2c3c(c1)C(C)=CC(C)(C)N3C(=O)C2=O
IC50 [1]: 15 µM (inactive)
IC50 (Perilipin-1/ABHD5): 15.3 µM (inactive)

Structure (SMILES): O=C(NCCN1CCOCC1)c1cc2sccc2n1Cc1ccc(F)cc1
EC50 [3]: 5.96 µM (active)
EC50 (HEK293 [4]): > 59.7 µM (inactive)
EC50 (HEK293 [5]): > 59.7 µM (inactive)

Structure (SMILES): CCNC(=O)NC(=O)C(C)OC(=O)c1c(C)nn(Cc2ccccc2Cl)c1Cl (stereo not drawn)
EC50 [9]: 1.5 µM (active) and 2.5 µM (active)

Structure (SMILES): CCc1ccc2nc(N(CCCN(C)C)C(=O)c3ccc(S(=O)(=O)N4CCc5ccccc5C4)cc3)sc2c1
IC50 (Bcl-2-related protein A1): > 20 µM (inactive)
IC50 [13]: 4.58 µM (active)
IC50 [14]: 4.49 µM (active)
EC50 [15]: > 100 µM (inactive)
EC50 [16]: > 92.5 µM (inactive)
EC50 (Mu-type opioid receptor): > 92.5 µM (inactive)
EC50 [17]: > 92.5 µM (inactive)
IC50 [18]: 80 µM (inactive)

Structure (SMILES): COc1ccc(NC(=O)Nc2ccc3nc(-c4ccco4)c(-c4ccco4)nc3c2)cc1
IC50 [19]: 12.2 µM (active)

Structure (SMILES): Cn1ccnc1SCC(=O)c1ccc(O)c(O)c1
IC50 [7]: 8.56 µM (active)
IC50 [8]: 75.7 µM (active)

Now from value to compound:

IC50 [6]: > 100 µM (not active)
IC50 [7]: > 100 µM (inactive)
IC50 [8]: > 100 µM (inactive)
Structure (SMILES): Clc1ccccc1-c1nnc2c3cnn(-c4ccccc4)c3ncn12

EC50 [3]: 1.5 µM (active)
Structure (SMILES): Cc1ccc(O)c(CNc2nc3ccccc3[nH]2)c1

IC50 [10]: > 56.8 µM (not active)
IC50 [11]: > 50 µM (inactive)
IC50 [12]: 3.18 µM (active)
Structure (SMILES): CCOC(=O)c1ccc(N=Nc2c(O)nc(O)c(C#N)c2C)cc1

EC50 [9]: > 50 µM (inactive)
Structure (SMILES): Cc1ccc(OCC(=O)NCCc2ccc(Cl)cc2Cl)c([N+](=O)[O-])n1
